Read-outs that look alike come from different tables or passages of the source.

Experiment [1] relates to JNK. Briefly: JNK Activation Assay in Panc-1 (western blot). Format: cell-based, Human. Also noted: key: Y = yes; N = No. As to conditions: at 10 μM. The protocol:
Cell lines: Human tumor-derived pancreatic cancer cell line Panc-1 and mouse muscle myoblast C2C12 were purchased from American Type Culture Collection and grown in complete DMEM-High Glucose, supplemented with penicillin (100 U/mL), streptomycin (100 μg/mL), and 10% heat-inactivated FBS at 37° C. in a humidified incubator with 5% CO2.
Method: Cells were plated at 350000 cells/well density in a 12-well plate, allowed 3 hours to adhere to the plate, then starved in the appropriate medium in the presence of 0.5% FBS overnight. The small molecules to be tested were added to the cells in the final concentration of 10 μM in the presence of 0.3% DMSO for 3 hours incubation at 37° C. For IC50 value determination, serial dilutions of compounds were added to cells under the same conditions. Next, Panc-1 cells were stimulated with 10 ng/ml TGF-b1 for 1 hour, and C2C12 cells were stimulated with 10 ng/ml TGF-b1 for 20 minutes (recombinant human TGF-b1, R&D Systems). After stimulation cells were lysed with lysis buffer containing 1% Triton X-100, EDTA, and Halt™ Protease & Phosphatase Inhibitor Cocktail (Thermo Scientific). Protein concentration was assessed by BCA protein assay (Thermo Scientific). Phosphorylation level of JNK was determined by western blot.
Western blot protocol: Equal amounts of protein (15-50 μg) were separated by SDS-PAGE and transferred to nitrocellulose membranes (Invitrogen by Thermo Fisher Scientific). The membrane was stained with Ponceau S Stain (Boston BioProducts) to verify uniform protein loading. Membranes were blocked with 10% milk and phosphorylation levels of Smad2, Smad3, INK and p38 were assessed by incubating overnight at 4° C. with the following antibody: Phospho-SAPK/JNK (Thr183/Tyr185), from Cell Signaling Technology. Then the membranes were incubated with HRP-conjugated secondary antibody (Jackson Immunoresearch, West Grove, PA). Bands were incubated in Amersham ECL Prime Western Blotting Detection Reagent (GE Healthcare) and visualized using the ChemiDoc MP imaging system (Bio-Rad).

Experiment [2] concerns the target KRas wild type (Homo sapiens (Human), UniProt P01116). Briefly: Ras GTP Binding Domain Inhibition Assay, KRas wild type. On the procedure:
(§1) A Ras Superfamily Activity Assay (as disclosed in International Application No. PCT/US2018/038613, filed Jun. 20, 2018, which is incorporated by reference in its entirety) was used as a specific assay to evaluate compounds against the following for the following Ras Superfamily proteins: KRas wild type, KRas Q61H mutant, KRas G12C mutant, KRas G12D mutant, Rac-1, and Rho-A.
(§2) Buffer-I: • 25 mM Tris-HCl, pH 7.4 • 27 mM KCl • 137 mM NaCl • 1 mM MgCl2 • 1 mM DTT
(§3) Buffer-II: • 50 mM Tris-HCl, pH 7.0 • 1 mM MgCl2 • 1 mM DTT
(§4) The small GTPases proteins: KRas wild type. KRas Q61H mutant, KRas G12C mutant, KRas G12D mutants, Rac-1, and Rho-A were expressed as His-tagged proteins. In addition, the Guanosine nucleotide Exchange Factor (GEF) Sos protein (residues 556-1049) was expressed as a His-tagged protein. In cells, the guanine nucleotide exchange factor Sos protein promotes activation of Ras proteins by stimulating an exchange of GDP for GTP. The inclusion of Sos to the Ras GTP binding domain inhibition assay may be considered as an alternative representation of physiological cellular conditions for evaluating the inhibitory activity of some of the tested small molecules.
(§5) For the assay, all purified small GTPases proteins were diluted in Buffer-I or Buffer-II to a final concentration of 10-30 μg/mL. 200 μL of each diluted protein was added to a nickel-coated 96-well plate and incubated overnight at 4° C. Then the protein solution was discarded and 200 μL of Buffer-I or Buffer-II was added to each well in the presence of 1% DMSO. Compounds to be tested were added to the protein-coated wells at final concentration of 20 μM, and incubated for 3 hours at room temperature with and without 10-30 μg/mL of Sos added to the final hour of the incubation. When performing IC50 measurements a serial dilution of all tested concentrations was added. Then Cy3-GTP or Cy5-GTP was added to each well to a final concentration of 100 nM. The labeled GTP was incubated for 45 minutes at room temperature. Following GTP incubation, wells were washed 3× in Buffer-I or Buffer-II and 200 μL of Buffer-I or Buffer-II was added to each well. Following washes, the amount of bound labeled-GTP was measured using a SpectraMax M3 (Molecular Devices).

For experiment [3], the target named is KRas G12C mutant (Homo sapiens (Human), UniProt P01116, G12C). Kind of experiment: Ras GTP Binding Domain Inhibition Assay, KRas G12C mutant. On the procedure: as §1, §2, §3, §4, §5
Experiment [4] deals with KRas G12D mutant (Homo sapiens (Human), UniProt P01116, G12D). Briefly: Ras GTP Binding Domain Inhibition Assay, KRas G12D mutant. As to conditions: for inhibition at 20 µM: Table 7; for KRas G12D mutant + SOS: % inh. / KRas G12D mutant: % inh.: 20 uM, Table 8. On the procedure: as §1, §2, §3, §4, §5
Experiment [5] deals with Rho-A (Homo sapiens (Human), UniProt P61586). Kind of experiment: Ras GTP Binding Domain Inhibition Assay, Rho-A. On the procedure: as §1, §2, §3, §4, §5
Setting [6] is: + SOS, read-out: KRas wild type + SOS: % inh.
The mark [7] stands for this setting: without SOS, read-out: KRas wild type: % inh.
Setting [8] is: + SOS, read-out: KRas G12C mutant + SOS: % inh.
Where [9] appears, read: without SOS, read-out: KRas G12C mutant: % inh.
Where [10] appears, read: + SOS, read-out: KRas G12D mutant + SOS: % inh.
Setting [11] is: without SOS, read-out: KRas G12D mutant: % inh.
Where [12] appears, read: without SOS, read-out: Rho-A: % inh.

KRas wild type, sequence (P01116 other isoform, or with tags, fused parts or gaps): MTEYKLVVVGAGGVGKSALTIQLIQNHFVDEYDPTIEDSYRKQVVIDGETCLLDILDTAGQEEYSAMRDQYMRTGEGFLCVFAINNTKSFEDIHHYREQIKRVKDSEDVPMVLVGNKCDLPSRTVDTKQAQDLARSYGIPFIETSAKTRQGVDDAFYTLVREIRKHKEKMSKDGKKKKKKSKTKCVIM
KRas G12C mutant, sequence (P01116 other isoform, or with tags, fused parts or gaps G12C): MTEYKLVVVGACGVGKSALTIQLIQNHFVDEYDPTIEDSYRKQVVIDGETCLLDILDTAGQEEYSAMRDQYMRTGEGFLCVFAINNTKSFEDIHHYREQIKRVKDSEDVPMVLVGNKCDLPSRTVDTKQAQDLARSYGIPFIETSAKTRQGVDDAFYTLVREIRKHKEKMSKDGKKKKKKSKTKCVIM
KRas G12D mutant, sequence (P01116 other isoform, or with tags, fused parts or gaps G12D): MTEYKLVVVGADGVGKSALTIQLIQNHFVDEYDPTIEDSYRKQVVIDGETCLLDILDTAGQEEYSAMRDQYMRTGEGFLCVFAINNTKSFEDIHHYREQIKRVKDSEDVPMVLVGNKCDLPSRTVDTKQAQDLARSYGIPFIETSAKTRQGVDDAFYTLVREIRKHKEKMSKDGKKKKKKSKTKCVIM
Rho-A, sequence (P61586 whole entry, species assumed, the tested form may be a part): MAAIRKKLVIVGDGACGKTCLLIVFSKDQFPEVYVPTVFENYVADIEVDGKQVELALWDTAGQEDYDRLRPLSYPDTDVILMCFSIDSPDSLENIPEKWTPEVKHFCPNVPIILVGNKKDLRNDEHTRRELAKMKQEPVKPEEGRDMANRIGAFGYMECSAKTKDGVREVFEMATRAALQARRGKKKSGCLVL

`Cc1c(-c2ccn(C(C)C)n2)sc2nc(-c3nccn3C)nc(NCC3CN(C)CCO3)c12` (racemic) [Compound 25, rac-6-(1-Isopropyl-1H-pyrazol-3-yl)-5-methyl-2-(1-methyl-1H-imidazol-2-yl)-N-((4-methylmorpholin-2-yl)methyl)thieno[2,3-d]pyrimidin-4-amine]: the “Activation of JNK in PANC-1” value in experiment [1] was “Y”. The inhibition at 20 µM in experiment [2] (setting [6]), in experiment [2] (setting [7]), in experiment [3] (setting [8]), in experiment [3] (setting [9]), in experiment [4] (setting [10]) and in experiment [4] (setting [11]) was 76 to 100% each time. In addition, the inhibition at 20 µM in experiment [5] (setting [12]) was in the range of 76 to 100%. The “KRas G12D mutant + SOS: % inh.” value in experiment [4] (+ SOS) is reported as “D (D = 76-100% inhibition)”. The “KRas G12D mutant: % inh.” value in experiment [4] (without SOS) is listed as “D (D = 76-100% inhibition)”.

On to `COCCNc1nc(-c2nccn2C)nc2sc(-c3cccc(OC)c3Cl)c(-c3ccccc3)c12` [Compound 9, 6-(2-Chloro-3-methoxyphenyl)-N-(2-methoxyethyl)-2-(1-methyl-1H-imidazol-2-yl)-5-phenylthieno[2,3-d]pyrimidin-4-amine], for which the “Activation of JNK in PANC-1” value in experiment [1] is given as “Y”. Besides, the inhibition at 20 µM in experiment [2] (setting [6]) lay in the range of 76 to 100%; in experiment [2] (setting [7]), 46 to 75%; in experiment [3] (setting [8]), 76 to 100%; in experiment [3] (setting [9]), 26 to 45%; in experiment [4] (setting [10]) it was 46 to 75%; in experiment [4] (setting [11]), 46 to 75%. For the same compound, the inhibition at 20 µM in experiment [5] (+ SOS, read-out: Rho-A + SOS: % inh.) was 26 to 45%; in experiment [5] (setting [12]) it was 26 to 45%. Also, in experiment [4] (+ SOS), the “KRas G12D mutant + SOS: % inh.” value was “C (C = 46-75% inhibition)”. Besides, the “KRas G12D mutant: % inh.” value in experiment [4] (without SOS) was “C (C = 46-75% inhibition)”.

With `COCCCCOc1nc(-c2nccn2C)nc2sc(-c3ccn(C(C)C)n3)c(C)c12` [Compound 34, 6-(1-Isopropyl-1H-pyrazol-3-yl)-4-(4-methoxybutoxy)-5-methyl-2-(1-methyl-1H-imidazol-2-yl)thieno[2,3-d]pyrimidine], the “Activation of JNK in PANC-1” value in experiment [1] is “Y”. Further, the inhibition at 20 µM in experiment [2] (setting [6]) is 0%; in experiment [2] (setting [7]) it was 1 to 25%; in experiment [3] (setting [8]), 1 to 25%; in experiment [3] (setting [9]) it was 0%; in experiment [4] (setting [10]) it was 0%; in experiment [4] (setting [11]) it was 1 to 25%. Further, the inhibition at 20 µM in experiment [5] (setting [12]) was 0%. Also, in experiment [4] (+ SOS), the “KRas G12D mutant + SOS: % inh.” value was 0 (0 = 0% inhibition). In addition, the “KRas G12D mutant: % inh.” value in experiment [4] (without SOS) is listed as “A (A = 1-25% inhibition)”.

For `COCCNc1nc(-c2nccn2C)nc2sc(-c3ccccc3)c(-c3ccccc3Cl)c12` [Compound 4, 5-(2-Chlorophenyl)-N-(2-methoxyethyl)-2-(1-methyl-1H-imidazol-2-yl)-6-phenylthieno[2,3-d]pyrimidin-4-amine], the “Activation of JNK in PANC-1” value in experiment [1] is on record as “Y”. Also, the inhibition at 20 µM in experiment [2] (setting [7]) fell in the range of 1 to 25%; in experiment [3] (setting [9]) it was 26 to 45%; in experiment [4] (setting [11]), 26 to 45%; in experiment [5] (setting [12]), 26 to 45%. The “KRas G12D mutant: % inh.” value in experiment [4] (without SOS) is on record as “B (B = 26-45% inhibition)”.

The values are drawn from patent US20240124483A1, “Methods for the Treatment of Fibrotic Disease” (SHY Therapeutics, LLC, priority 2021, published 2024).
